Experimental data reported in article PMC11718441, “Bis-3-chloropiperidines: a novel motif for anthelmintic drug design” (RSC Advances, 2025).
≈ marks a conversion by molar mass, not a printed value. Like-named read-outs stand apart in the source and are kept apart here.

Key:
C. elegans N2 = assay: whole plant or invertebrate; assay type: cell-based, Caenorhabditis elegans
Source text: (§1) The cuticle of C. elegans strain DC19 is known to be more permeable for small molecules compared to the wildtype N2.[30] DC19 is thereby considered an informative drug-sensitive test organism. In our assays, we determined the minimum mobility inhibitory concentration (MMIC) as a proxy for anthelmintic activity. […] In contrast, MMICs of some small molecule anthelmintics such as albendazole, mebendazole or PF-1022A were lower for DC19 (Fig. S1 ^†). […]
(§2) 2.2 In vitro tests against Caenorhabditis Elegans
(§3) The minimal motility inhibitory concentration (MMIC) of compounds 1-22 against C. elegans was determined as described before.3 Both strains, C. elegans N2 and DC19 were treated identically. Briefly, pre-cultures of C.elegans were kept on NGM agar plates infused with auxotrophic E.coli OP50 as food source.4 After 4 days the plates contained sufficient gravid worms, respectively. Worms were washed from the plates with M9 buffer using wide bore pipette tips. Egg preparation was carried out by treating the harvested worms with an alkaline hypochlorite solution (5 M NaOH + 5 % NaOCl 1:2) in polypropylene tubes. Larvae and adult […]
(§4) We carried out 3 washing steps (M9 buffer) to remove carry-over hypochlorite solution. Subsequently, the eggs were incubated overnight in NGM broth on a rotator to yield synchronized hatched L1/L2 larvae. The larvae solution was adjusted to 100 worms/mL and supplemented with cholesterol (5 µg/mL), carbenicillin (25 µg/mL) and E.coli OP50 (0.5%). This assay solution was distributed into 96 well plates and incubated with a dilution series of compounds 1-22 (64-0.5 µg/mL). An additional eight-point dilution series of ivermecin (40 – 0.3 ng/mL) was used as positive control on each assay plate. Solvent background was controlled by supplementation of pure DMSO without any compound. Assays were incubated for 2 days at room temperature. Finally, a cell imaging multimode reader (Cytation™ 5) was used to record short videos (1.5 seconds) of each individual test well. The videos were used to evaluate the worm motility.

C. elegans DC19 = assay: whole plant or invertebrate; assay type: cell-based, Caenorhabditis elegans
Source text: as §1, §2, §3, §4

S. aureus ATCC33592 = assay: microbe, parasite or virus in culture; assay type: cell-based; conditions: Staphylococcus aureus, ATCC33592, read-out: MIC Sa
Description: (§5) The minimum inhibitory concentration (MIC) of the synthesized compounds was initially determined against three microbial indicator strains (Escherichia coli ATCC35218, […] ATCC33592, Septoria tritici MUCL45408). […]
(§6) 2. Microbial and parasitological studies
(§7) The minimum inhibitory concentration (MIC) of the synthesized compounds was determined against three microbial indicator strains (E. coli ATCC35218, S. aureus ATCC33592 and S. tritici MUCL45408) as previously described.1,2 All samples were dissolved in DMSO and tested in triplicate. Briefly, a pre-culture of E. coli and S. aureus was prepared by incubating the strains in cation adjusted Mueller Hinton 2 broth (Becton Dickinson, Sparks, NV, USA) at 37°C and 180 rpm overnight. The cell density of adjusted to 5 × 10^5 cells/mL before assays were incubated at 37 °C, 180 rpm and 85% rH. Three distinct dilution series of standard antibiotics (gentamicin, rifampicin, […]
(§8) medium without test compound or positive control was used as negative control.
(§9) Medium background was averaged from 5 replicates. The turbidity of each well was […]

[1] = test system: Escherichia coli ATCC35218; assay: microbe, parasite or virus in culture; assay type: cell-based; conditions: ATCC35218, read-out: MIC Ec
Description: as §5, §6, §7, §8, §9

MDCK II cells = assay: In vitro cytotoxicity, CellTiter-Glo, MDCK II cells; conditions: 100 μM, 48 h; cell viability less than 80% relative to DMSO control = cytotoxic
[2] = Figure S1, common small molecule anthelminthics

`CCCSc1ccc2nc(NC(=O)OC)[nH]c2c1` [Albendazole, reference compound] was tested, and the “C. elegans MMIC N2” value (C. elegans N2) was 0.16 µg/mL and the “C. elegans MMIC DC19” value (C. elegans DC19) was < 0.08 µg/mL.

For `CNC(=O)O/N=C/C(C)(C)SC` [Aldicarb, reference compound], the “C. elegans MMIC N2” value (C. elegans N2; [2]) was > 10 µg/mL and the “C. elegans MMIC DC19” value (C. elegans DC19; [2]) was > 10 µg/mL.

For `CNC(C)C1CCC(N)C(OC2C(N)CC(N)C(OC3OCC(C)(O)C(NC)C3O)C2O)O1` (stereo not shown) [GEN, gentamicin, reference compound], the MIC (S. aureus ATCC33592) was 0.5 µg/mL (≈ 1.05 µM) and the MIC [1] was 1 µg/mL (≈ 2.09 µM).

For `C[C@H](CCC(=O)O)C[C@H](C)C[C@H](C)C(=O)/C=C(\O)[C@H](C)C[C@H](C)C/C=C/[C@@H](C)[C@@H](O)[C@@H](C)[C@@H](O)C[C@@H]1CC[C@@](C)([C@H]2CC[C@@](C)([C@@H](C)O)O2)O1` [ION, ionomycin, reference compound], the MDCKII cytotoxicity (MDCK II cells) was “+ (“+” (toxic))”.

For `c1ccc([C@H]2CN3CCSC3=N2)cc1` [Levamisole, reference compound], the “C. elegans MMIC N2” value (C. elegans N2) was 0.3 µg/mL and the “C. elegans MMIC DC19” value (C. elegans DC19) was 0.3 µg/mL.

In the case of `COC(=O)Nc1nc2ccc(C(=O)c3ccccc3)cc2[nH]1` [Mebendazole, reference compound], the “C. elegans MMIC N2” value (C. elegans N2; [2]) is reported as 1.25 µg/mL and the “C. elegans MMIC DC19” value (C. elegans DC19; [2]) is reported as 0.3 µg/mL.

`CC(=O)Oc1ccccc1C(=O)Nc1ncc([N+](=O)[O-])s1` [Nitazoxanide, reference compound] was tested, and the “C. elegans MMIC N2” value (C. elegans N2; [2]) was > 10 µg/mL and the “C. elegans MMIC DC19” value (C. elegans DC19; [2]) was > 10 µg/mL.

With `CC(C)C[C@H]1C(=O)O[C@H](Cc2ccccc2)C(=O)N(C)[C@@H](CC(C)C)C(=O)O[C@H](C)C(=O)N(C)[C@@H](CC(C)C)C(=O)O[C@H](Cc2ccccc2)C(=O)N(C)[C@@H](CC(C)C)C(=O)O[C@H](C)C(=O)N1C` [PF-1022A, reference compound] the “C. elegans MMIC N2” value (C. elegans N2; [2]) was 10 µg/mL and the “C. elegans MMIC DC19” value (C. elegans DC19; [2]) was 2.5 µg/mL.

With `O=C(C1CCCCC1)N1CC(=O)N2CCc3ccccc3C2C1` (stereo not shown) [Praziquantel, reference compound] the “C. elegans MMIC N2” value (C. elegans N2; [2]) was > 10 µg/mL and the “C. elegans MMIC DC19” value (C. elegans DC19; [2]) was > 10 µg/mL.

With `CO[C@H]1/C=C/O[C@@]2(C)Oc3c(C)c(O)c4c(O)c(c(/C=N/N5CCN(C)CC5)c(O)c4c3C2=O)NC(=O)/C(C)=C\C=C\[C@H](C)[C@H](O)[C@@H](C)[C@@H](O)[C@@H](C)[C@H](OC(C)=O)[C@@H]1C` [RIF, rifampicin, reference compound] the MIC (S. aureus ATCC33592) was > 64 µg/mL and the MIC [1] was 4 µg/mL (≈ 4.86 µM).

In the case of Abamectin [reference compound], the “C. elegans MMIC N2” value (C. elegans N2; [2]) is reported as < 0.08 µg/mL and the “C. elegans MMIC DC19” value (C. elegans DC19; [2]) is reported as < 0.08 µg/mL.

ivermectin [IVR, reference compound] was tested, and the “MMIC N2” value (C. elegans N2; C. elegans N2, 2 days) was 0.005 µg/mL, the “C. elegans MMIC N2” value (C. elegans N2; [2]) was 0.005 µg/mL and the “MMIC DC19” value (C. elegans DC19; C. elegans DC19, 2 days) was 0.005 µg/mL. For the same compound, the “C. elegans MMIC DC19” value (C. elegans DC19; [2]) was 0.005 µg/mL.
